Results reported in the NIST ThermoML archive (doi:10.1016/j.fluid.2013.05.012).
Several values for one entry are separate records, joined by “and”; a condition that tells them apart may be missing. Equal entries are not always repeated. Numbers after ± are expanded uncertainties.

Details: 101.33 kPa, Liquid; for viscosity: Vibrating wire viscometry; for mass density: Vibrating tube method

Row | Structure (SMILES) | mass density (293.15 K) [kg/m3] | mass density (293.16 K) [kg/m3] | mass density (295.65 K) | mass density (298.15 K) | mass density (298.16 K) [kg/m3] | viscosity (298.18 K) | viscosity (298.2 K) [mPa·s] | mass density (300.65 K) | viscosity (303.13 K) [mPa·s] | mass density (303.15 K) | mass density (305.65 K) [kg/m3] | mass density (308.15 K) | mass density (310.65 K) [kg/m3] | viscosity (313.14 K) [mPa·s] | mass density (313.15 K) [kg/m3] | mass density (315.65 K) | mass density (318.15 K) | mass density (288.15 K) [kg/m3] | viscosity (293.14 K) [mPa·s] | viscosity (323.1 K) [mPa·s] | other results
1 | CCOS(=O)(=O)[O-].CC[n+]1cccc(C)c1 [1-ethyl-3-methylpyridinium ethylsulfate] | 1225.08 ± 1.1 | 1225.08 ± 1.1 | 1223.43 ± 1.1 kg/m3 | 1221.79 ± 1.1 kg/m3 | 1221.8 ± 1.1 | 133.7 ± 3.4 mPa·s | 133.8 ± 3.5 | 1220.15 ± 1.1 kg/m3 | 102.1 ± 2.4 | 1218.5 ± 1.1 kg/m3 | 1216.85 ± 1.1 | 1215.21 ± 1.1 kg/m3 and 1215.2 ± 1.1 kg/m3 | 1213.56 ± 1.1 | 62.73 ± 1.3 | 1211.91 ± 1.1 | 1210.27 ± 1.1 kg/m3 | 1208.63 ± 1.1 kg/m3 and 1208.64 ± 1.1 kg/m3 | – | – | – | viscosity (293.13 K): 181.5 ± 5.2 mPa·s; mass density (295.64 K): 1223.43 ± 1.1 kg/m3; mass density (300.66 K): 1220.15 ± 1.1 kg/m3; mass density (303.14 K): 1218.51 ± 1.1 kg/m3; mass density (305.64 K): 1216.85 ± 1.1 kg/m3; viscosity (308.16 K): 79.18 ± 1.7 mPa·s; mass density (310.66 K): 1213.56 ± 1.1 kg/m3; mass density (315.66 K): 1210.27 ± 1.1 kg/m3; viscosity (318.08 K): 50.65 ± 1.1 mPa·s; mass density (320.65 K): 1207 ± 1.1 kg/m3
2 | CCOS(=O)(=O)[O-].CCn1cc[n+](C)c1 [1-ethyl-3-methylimidazolium ethyl sulfate] | 1241.85 ± 1.1 | – | 1240.17 ± 1.1 kg/m3 and 1240.15 ± 1.1 kg/m3 | 1238.47 ± 1.1 kg/m3 and 1238.45 ± 1.1 kg/m3 | – | – | 98.63 ± 2.3 | 1236.77 ± 1.1 kg/m3 and 1236.76 ± 1.1 kg/m3 | – | 1235.08 ± 1.1 kg/m3 and 1235.06 ± 1.1 kg/m3 | 1233.38 ± 1.1 | 1231.69 ± 1.1 kg/m3 | 1230.01 ± 1.1 | 51.1 ± 1.1 | – | 1226.63 ± 1.1 kg/m3 and 1226.64 ± 1.1 kg/m3 | 1224.95 ± 1.1 kg/m3 | 1245.23 ± 1.1 | 128.2 ± 3.2 | 35.37 ± 0.74 | mass density (288.16 K): 1245.23 ± 1.1 kg/m3; mass density (290.64 K): 1243.55 ± 1.1 kg/m3; mass density (290.65 K): 1243.55 ± 1.1 kg/m3; mass density (293.14 K): 1241.85 ± 1.1 kg/m3; viscosity (298.19 K): 98.87 ± 2.3 mPa·s; viscosity (303.16 K): 77.83 ± 1.7 mPa·s; viscosity (308.19 K): 62.54 ± 1.3 mPa·s; mass density (310.64 K): 1230.01 ± 1.1 kg/m3; mass density (313.14 K): 1228.32 ± 1.1 kg/m3; viscosity (318.14 K): 42.22 ± 0.89 mPa·s; mass density (320.64 K): 1223.27 ± 1.1 kg/m3 and 1223.28 ± 1.1 kg/m3; mass density (323.14 K): 1221.6 ± 1.1 kg/m3; mass density (323.15 K): 1221.6 ± 1.1 kg/m3; mass density (325.64 K): 1219.92 ± 1.1 kg/m3; mass density (325.65 K): 1219.92 ± 1.1 kg/m3; mass density (328.15 K): 1218.26 ± 1.1 kg/m3
3 | CCCCCC[n+]1ccn(C)c1.O=S(=O)([N-]S(=O)(=O)C(F)(F)F)C(F)(F)F | – | 1376.63 ± 1.1 | – | – | 1372.04 ± 1.1 | 70.9 ± 1.5 mPa·s and 70.95 ± 1.5 mPa·s | – | – | 56.93 ± 1.2 | 1367.46 ± 1.1 kg/m3 | – | – | – | – | 1358.32 ± 1.1 | – | 1353.76 ± 1.1 kg/m3 | 1381.24 ± 1.1 | 90.27 ± 2.1 | 26.73 ± 0.56 | mass density (303.16 K): 1367.45 ± 1.1 kg/m3; viscosity (308.13 K): 46.15 ± 0.97 mPa·s; mass density (308.16 K): 1362.88 ± 1.1 kg/m3; viscosity (313.09 K): 38.05 ± 0.8 mPa·s; viscosity (318.1 K): 31.74 ± 0.67 mPa·s; mass density (318.16 K): 1353.77 ± 1.1 kg/m3; mass density (323.15 K): 1349.23 ± 1.1 kg/m3; mass density (323.16 K): 1349.24 ± 1.1 kg/m3; mass density (328.15 K): 1344.72 ± 1.1 kg/m3
